Here are results for six compounds from patent US8236854B2, “Lipid-improving agent and composition containing lipid-improving agent” (Suntory Holdings Limited, priority 2003, dated 2012).

SMILES strings stand for the structures. Marks after values point to notes of the source that are not given here.

What all share (type): in vivo, rat
The test system of assay [1] is Male rats of SD strain. Put plainly: Serum lipid lowering action of structured lipids in high-fat food, two weeks (Example 6). The following applies: High-TG Food (20% fat) with 7.5% structured lipid, 2 weeks. From the text: Influence of arachidonic acid chemically synthesized in Example 2 on serum lipid lowering action of the constituting fatty acid was investigated in a high-fat foods.
Male rats of SD strain of 5 weeks age were divided into eight groups each comprising five rats, acclimatized for one week with a standard solid feed and ingested for two weeks with the experimental food as shown in Table 7 and Table 8 (normal, high-TG, 7.5% PPP, 7.5% PAP, 7.5% PPA, 7.5% 8P8, 7.5% 8A8 and 7.5% 88A). Incidentally, the condition for a high-fat food was that the rate of fat/oil in the feed was made 20%, beef tallow abundant in saturated fatty acid was used as a base and 2% of corn oil were compounded to avoid the deficiency of essential fatty acids. In the control group, an experimental food (high-TG food, 20% fat/oil food) compounded with 18% of […] (20% as a result of addition of 2% of corn oil) was used.

Assay [2] deals with Male rats of SD strain. Put plainly: Ingestion of experimental food with 10% structured lipid for two weeks: body weight, liver weight, serum lipid concentration (Example 5). The following applies: 10% structured lipid in experimental food, 2 weeks. From the text: (§1) Influence of the structured lipid where arachidonic acid chemically synthesized in Example 2 as a constituting fatty acid on expression of lipid metabolism-related gene was investigated using rats.
(§2) Male rats of SD strain of 5 weeks age were divided into four groups each comprising five rats, acclimatized for one week with a standard solid feed and ingested for two weeks with an experimental food (10% PPA and 10% PAP; Table 5) compounded with 10% of arachidonic acid-containing structured lipid (PPA or PAP). In the control group, an experimental food (10% PPP) compounded with 10% of PPP was used. In ingestion of the food, a pair-feeding was conducted and body weight was measured every day.

In assay [3] the test system is PPARα mRNA of liver. Put plainly: Influence of structured lipid on liver PPARα mRNA expression (Example 5). The following applies: rats, 10% PAP food, 2 weeks.
From the text: as §1, §2
Two molecules of palmitic acid and one molecule of 2-AG incorporated into epidermal cells of small intestine are reconstructed to a triglyceride(s) (in that case, although there is a possibility of bonding of other inherent fatty acids existing in the epidermal cells of the small intestine to 1,3-positions, arachidonic acid bonded to 2-position is retained), incorporated into chylomicron, transferred to peripheral tissues together with secretion of lymph and blood flow and finally incorporated into liver.

Assay [4] has as its system target gene of PPAR of jejunum. Put plainly: Influence of structured lipid on expression of target gene of PPAR of jejunum (Example 5). The following applies: rats, 10% structured lipid food, compared with PPP food control group.
From the text: as §1, §2
Influence of structured lipid on expression of target gene of PPAR of jejunum is shown (FIG. 4). From PPA, each one molecule of palmitic acid and arachidonic acid is dissociated and absorbed by the action of pancreatic lipase specific to 1,3-positions and arachidonic acid having a particularly strong PPAR ligand activity acts as a PPARα ligand in small intestine and, therefore, expressed amount of target gene of PPAR increased in a group of 10% PPA food as compared with a PPP food group which is a control group. […]

As for `CCCCC/C=C\C/C=C\C/C=C\C/C=C\CCCC(=O)OCC(COC(=O)CCCCCCC)OC(=O)CCCCCCC` (centres unmarked) [88A, 1(3),2-dioctanoyl-3(1)-arachidonoyl glyceride], in assay [1], the “Serum Total Cholesterol Concn” value is 92.9 ± 2.9^a μmol/dl and the “Serum Triglyceride(s) Concn” value is reported as 83.1 ± 3.6^a μmol/dl.
Turning to `CCCCC/C=C\C/C=C\C/C=C\C/C=C\CCCC(=O)OC(COC(=O)CCCCCCCCCCCCCCC)COC(=O)CCCCCCCCCCCCCCC` [PAP, 1,3-dipalmitoyl-2-arachidonoyl glyceride], the “Serum Total Cholesterol Concn” value in assay [2] is recorded as 178 ± 15.3^ab μmol/dl; in assay [1], 91.7 ± 3.3^a μmol/dl. The entries for the “Serum Triglyceride(s) Concn” value in assay [2] and in assay [1] were 174 ± 7.5^b μmol/dl and 80.4 ± 3.9^a μmol/dl, respectively. For the same compound, the “Expressed amount of PPARα mRNA of liver” value in assay [3] is reported as “significantly increased”.
On to `CCCCC/C=C\C/C=C\C/C=C\C/C=C\CCCC(=O)OC(COC(=O)CCCCCCC)COC(=O)CCCCCCC` [8A8, 1,3-dioctanoyl-2-arachidonoyl glyceride], for which, in assay [1], the “Serum Total Cholesterol Concn” value is listed as 85.6 ± 2.5^b μmol/dl and the “Serum Triglyceride(s) Concn” value was 63.3 ± 4.1^a μmol/dl.
For the compound `CCCCC/C=C\C/C=C\C/C=C\C/C=C\CCCC(=O)OCC(COC(=O)CCCCCCCCCCCCCCC)OC(=O)CCCCCCCCCCCCCCC` (centres unmarked) [PPA, 1(3),2-dipalmitoyl-3(1)-arachidonoyl glyceride], in assay [4], the “Expressed amount of target gene of PPAR in jejunum” value is on record as “increased”. Further, the “Serum Total Cholesterol Concn” value is 150 ± 16.6^b μmol/dl in assay [2] and 92.4 ± 4.9^a μmol/dl in assay [1]. Also, the “Serum Triglyceride(s) Concn” value in assay [2] is 173 ± 6.6^b μmol/dl; in assay [1], 93.1 ± 1.3^a μmol/dl.
Consider `CCCCCCCCCCCCCCCC(=O)OCC(COC(=O)CCCCCCCCCCCCCCC)OC(=O)CCCCCCCCCCCCCCC` [PPP, reference compound], for which, in assay [2], the “Serum Total Cholesterol Concn” value was 201 ± 9.2^a μmol/dl and the “Serum Triglyceride(s) Concn” value is listed as 316 ± 64.3^b μmol/dl. Moreover, in assay [1], the “Serum Total Cholesterol Concn” value is listed as 104.3 ± 5.9^b μmol/dl and the “Serum Triglyceride(s) Concn” value is reported as 109.2 ± 6.8^b μmol/dl.
Take `CCCCCCCCCCCCCCCC(=O)OC(COC(=O)CCCCCCC)COC(=O)CCCCCCC` [8P8, 1,3-capryloyl-2-palmitoyl-glyceride, reference compound]: in assay [1], the “Serum Total Cholesterol Concn” value is on record as 99.7 ± 4.2^b μmol/dl and the “Serum Triglyceride(s) Concn” value is on record as 101.8 ± 5.3^b μmol/dl.
